Laboratory results taken from PubChem BioAssay (NCI).
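Five compound concentrations were applied to cells in 96-well plates for 48 hours; endpoints were derived by simple linear interpolation of the resulting dose-response curve. GI50 is the concentration that inhibits growth by half. At the TGI there is no net growth.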

What was measured:
Assay in all cases: growth of human tumour cells (NCI), 48 h
IGROV1 ovarian = test system: IGROV1 ovarian
SF-295 CNS = test system: SF-295 CNS
NCI-H460 lung = test system: NCI-H460 lung
U251 CNS = test system: U251 CNS
MALME-3M melanoma = test system: MALME-3M melanoma
HT29 colon = test system: HT29 colon
SN12C renal = test system: SN12C renal
K-562 leukemia = test system: K-562 leukemia
PC-3 prostate = test system: PC-3 prostate
HS 578T breast = test system: HS 578T breast

Compound	TGI (IGROV1 ovarian) [µM]	TGI (SF-295 CNS) [µM]	TGI (NCI-H460 lung) [µM]	TGI (U251 CNS) [µM]	TGI (MALME-3M melanoma) [µM]	TGI (HT29 colon) [µM]	TGI (SN12C renal) [µM]	TGI (K-562 leukemia) [µM]	GI50 (IGROV1 ovarian) [µM]	GI50 (SF-295 CNS) [µM]	GI50 (MALME-3M melanoma) [µM]	GI50 (PC-3 prostate) [µM]	TGI (PC-3 prostate) [µM]	GI50 (HS 578T breast) [µM]	TGI (HS 578T breast) [µM]	GI50 (HT29 colon) [µM]	GI50 (SN12C renal) [µM]	GI50 (NCI-H460 lung) [µM]	GI50 (U251 CNS) [µM]	GI50 (K-562 leukemia) [µM]
CCCC(=O)N[C@H]1C2C3CC4C5CC(C42)C1(C)C53 (stereo not given in full)	> 100	> 100	> 100	> 100	> 100	> 100	> 100	> 100												
NCCOCCOCCNc1nc(-c2ccc(Cl)cc2)nc(N2CCN(c3ccccn3)CC2)n1	7.04	6.46			4.18	3.78	20.8		2.81	2.35	2.18	1.89	3.92	1.92	4.6	1.85	6.17			
CC(=O)[O-].[Mn+3].[O-]c1ccccc1C=NCCNCCN=Cc1ccccc1[O-]	> 100	> 100	> 100	> 100	> 100	> 100	> 100	> 100	> 100	> 100	58.1					> 100	> 100	> 100	> 100	> 100
S=c1nc(N/N=C/c2ccco2)c2cn[nH]c2[nH]1	> 100	> 100	> 100	> 100	> 100		> 100	> 100	46.9	> 100	> 100	57.5	> 100	42.5	> 100		83.7	17.9	> 100	39.9
COc1ncnc(S(=O)(=O)c2ccc(N=C3C(=O)N(CN4CCN(c5cc6c(cc5F)c(=O)c(C(=O)O)cn6C5CC5)CC4)c4ccc(Cl)cc43)cc2)c1OC	> 50	> 50	> 50	> 50		> 50	> 50	> 50	> 50	> 50		34.9	> 50	6.16	> 50	> 50	30.4	37.4	18.7	24.6
Cc1c(-c2ccnc(N)n2)c2c(n1Cc1ccccc1)C(=O)c1ccccc1C2=O	54.7	15	26.5	36.2			> 100	44.4	4.84	3.12		49.1	> 100	2.62	8.05		> 100	6.42	3.91	2.92
CN1CCc2c1nc(-c1ccc(Cl)cc1)c1c2N(C)CC1	> 100	31.1	40.4	22.5	> 100	45.4	71.1	62.1												
Cc1c(NC(=S)NC(=O)c2ccc([N+](=O)[O-])cc2)c(=O)n(-c2ccccc2)n1C	> 100	> 100	> 100	> 100	> 100	> 100	> 100	> 100												
C=CC(=O)Nc1cc(N2CCN(CC)CC2)ccc1Nc1cc(N(C)C(=O)Nc2c(Cl)c(OC)cc(OC)c2Cl)ncn1	7.35	31.8	24.7		19.3	5.29	9.72		2.58	16.7	5.06	5.05	20.8	4.77	40.8	2.24	2.84	7.67		
COC(=O)CC(NC(=O)OCc1ccccc1)C(C(=O)OCc1ccccc1)C(C)(OC)OC (stereo not given)	> 100	> 100	80.2	> 100	80.9	> 100	> 100	> 100												
CC1=Cc2ccc(C)cc2C(=O)C1=O	29.4	34.7	41	45.2		49.3	12.8	> 23.9					43		> 65.1					
Cc1ccc(N=Nc2c(O)ccc3ccccc23)cc1	> 100	> 100		> 100	> 100	> 100	> 100						> 100		> 100					
COc1ccc(C(=O)C(CC2C(=O)NC(=O)NC2=O)c2ccc(OC)cc2)cc1 (stereo not given)	> 100	> 100	> 100	> 100	> 100	> 100	> 100	> 100												
C[C@]12CC[C@H](O)CC1=CC[C@@H]1C2CC[C@]2(C)Nc3c(cnn3-c3ccccc3)CC12 (stereo not given in full)	33.3	1.87	10.8	14.9	36	4.88		10.2												
c1ccc2c(-c3nc(-c4c[nH]c5ccncc45)cs3)c[nH]c2c1	3.83	3.2	3.58	3.58	3.13	4.2	3.35	5.29	1.33	1.58	1.65	1.84	6.25			2.07	1.67	1.76	1.93	2.05
CCOC(=O)N1CCc2cc(OC)c(OC)cc2/C1=C\c1ccc(OC)c(OC)c1	> 100	61.2		92.9	57.1	40.8	> 100	> 10												
Cc1cc(N(CCC#N)CCC#N)ccc1N=Nc1ccc(Br)cc1	> 57.3	> 51	> 100	> 53	> 100	> 100	> 54.8	> 100												
O=C(Nc1ccc(-c2nc(-c3cccc(OCCN4CCOCC4)c3)c(-c3ccnc(Br)c3)[nH]2)cc1)c1ccccc1	> 100		9.3		3.85		> 100		4.61		1.55	2.36	> 100	0.267	0.885		6.94	2.81		
C1=C2CCCC3=Cc4ccccc4OC23Oc2ccccc21	> 100	> 100	16.4	> 100	> 100	17.9	> 100	> 100	5.36	3.99	7.17	4	> 100			3.52	4.42	3.47	4.54	3.54
Cc1ccc(S(=O)(=O)c2ccccc2[N+](=O)[O-])cc1	> 100	> 100	> 100	> 100	> 100	> 100		> 100												

Compound	TGI (IGROV1 ovarian) [µM]	TGI (SF-295 CNS) [µM]	TGI (NCI-H460 lung) [µM]	TGI (U251 CNS) [µM]	TGI (MALME-3M melanoma) [µM]	TGI (HT29 colon) [µM]	TGI (SN12C renal) [µM]	TGI (K-562 leukemia) [µM]	GI50 (IGROV1 ovarian) [µM]	GI50 (SF-295 CNS) [µM]	GI50 (MALME-3M melanoma) [µM]	GI50 (PC-3 prostate) [µM]	TGI (PC-3 prostate) [µM]	GI50 (HS 578T breast) [µM]	TGI (HS 578T breast) [µM]	GI50 (HT29 colon) [µM]	GI50 (SN12C renal) [µM]	GI50 (NCI-H460 lung) [µM]	GI50 (U251 CNS) [µM]	GI50 (K-562 leukemia) [µM]
CCCCCC[C@H](C)Nc1nc2ccccc2c2occc12	13.2	25.5	> 100	21.7		> 100	23.9	> 100	0.787	6.01		14.8	35.5	12.8	37.7	8.15	11.2	> 100	9.94	16.3
CC(C)CCCC(C)[C@H]1CCC2[C@@H]3CCC4Nc5c(cnn5-c5ccccc5)C[C@]4(C)C3CC[C@@]21C (stereo not given in full)	> 100	7.46	> 100	> 100	> 100	> 100	> 100	> 100												
COC(=O)c1c2c(cc3c1CC1(Cc4cc5c(c(C(C)=O)c4C1)CCC5)C3)CCC2 (stereo not given)	> 100	99.3	> 100	> 100	> 100	> 100	> 100	> 100												
O=S(=O)(NCn1ccc2ccccc21)c1ccccc1	> 100	> 100	> 100	> 100	> 100	> 57.2	> 100	> 100												
CC(=O)OCC(=O)[C@@]12OC(C)(C)O[C@@H]1C[C@H]1[C@@H]3CC(C=O)=C4C=C(OCCCl)CC[C@]4(C)[C@@]3(F)[C@@H](O)C[C@@]12C	> 100	46.4	88.4	48.5	70.3	36.8	> 100	> 100												
CC(=O)O[C@]1(C)OC(=O)[C@@H](CC(C)C)N1[N+](=O)[O-]	> 100	> 100	> 100	> 100	> 100	> 100	> 100	> 100												
NNC(=O)C(=O)N/N=C1\CCC(=O)CC1C(=O)CCC(=O)Nc1ccc(Cl)cc1 (stereo not given)	> 100	> 100	> 100	> 100	> 100	> 100	> 100	> 100												
CCOC(=O)CCn1ncc(Cl)c(Cl)c1=O	26	34.2	30.3	17.1	34.4	14.2	29.3	8.52												
C[Si](C)(C)/C=C\CCO	> 100	> 100	> 100	> 100	> 100	> 100	> 100	> 100												
C=CCO/N=C(\OC(=O)c1ccc([N+](=O)[O-])cc1)c1ccccc1	> 100	> 100	> 100	> 100	> 100	> 100	> 100	> 100												
O=C1/C(=C/c2ccccc2)CN(C(=O)CCN2CCCC2)C/C1=C\c1ccccc1	7.75	2.6	4.52	2.51	11.4	2.54	3.16	4.69					2.42							
N.N.N.N.N.O=[N+]([O-])[O-].[Co+3].[O-][Cl+3]([O-])([O-])[O-]	> 100	> 100	> 100	> 100	> 100	> 100	> 100	> 100	> 100	> 100	> 100					> 100	> 100	> 100	> 100	> 100
C#Cc1c(C)c(/C=C/C(C)=C/C(=O)OC)n(C)c1C	> 100	> 100		> 100	> 100	> 100	> 100	> 100												
CC(C)(C)OC(=O)NCCCn1c2c(c3ccccc3c1=O)C(=O)c1ccccc1-2	> 100	44.6	> 100	28.3	> 100		> 100	> 100	> 100	16.8	32.9	51.5	> 100	15.8	71.6		24.8	33.9	11.5	> 100
CN(C)c1nc2ccccc2c2c1c1c(n2Cc2ccccc2)-c2ccccc2C1=O	> 100	> 100	> 100	> 100	> 100	> 100	> 100	> 100	27.2	> 100	> 100				75.9	12.2	> 100	> 100	> 100	> 100
Cc1c2c(c(C)c3c4c(oc13)CCCC4)C=NCC2	26.5	31.7	31.2	26.8	32.6	29	31.7	37.4							53					
COc1ccc(CCc2cc(OC)cc(OC)c2)cc1	> 100	> 100	> 100	> 100	> 83.7	47.9	> 100	71.8												
O=C(O)CCNCCCCNCCC(=O)O	> 100	> 100	> 100	> 100	> 100	> 100	> 100	> 100												
COc1ccc(C(=O)NNc2nc(Cl)nc(N3CCN(C(c4ccccc4)c4ccccc4)CC3)n2)cc1	3.11	30.6	11.9	3.34	3.64		3.19		1.67	16	1.84	1.74	3.59	1.95	4.76		1.71	3.52	1.8	
